Here are results for 4 compounds from patent US10357577B2, “Bacterial nitroreductase enzymes and methods relating thereto” (AUCKLAND UNISERVICES LIMITED, priority 2010, dated 2019).

For data set [1], the system named is 25% HCT-116^nfsB/75% HCT-116^WT or 25% HCT-116^nfsA/75% HCT-116^WT tumours. Put plainly: Tumour xenograft growth delay. The data set is classed as in vivo, NIH-III nude mice. Conditions: single dose i.p. PR-104 1000 μmol/kg. As for the experimental part: FIG. 18 illustrates in vivo activity of PR-104 in 25% nfsB or 25% nfsA tumours. Average tumour volume and Kaplan-Meier growth plots for tumours grown subcutaneously on NIH-III mice. Tumours were composed of either 25% HCT-116^nfsB/75% HCT-116^WT or 25% HCT-116^nfsA/75% HCT-116^WT. When tumours reached 7 mm^2 mice (n=8-11 per group) were randomly assigned to a treatment group and injected with a single dose (i.p.) of PBS (control) or PR-104 (1000 μmol/kg). Tumour measurements were recorded twice weekly and mice were culled when tumours exceeded a mean diameter of […].
Specific pathogen-free female homozygous NIH-III nude mice (CrI:NIH-Lyst^bgFoxn1^nuBtk^xid; Charles River Laboratories) were housed in Techniplast microisolator cages and fed Harlan Teklad diet 2018i. […] Tumours were monitored using electronic calipers and mice were randomised into treatment groups once their tumours reached 7×7 mm in diameter. Tumour size and body weight were determined three times weekly. Tumour volume was calculated as π (I×w^2)/6, where I is the major axis and w is the perpendicular minor axis. […] The median time for tumours to increase in volume 4-fold relative to pretreatment volume (RTV-4) was determined, and the specific growth delay (SGD) was calculated as the percentage increase in RTV-4 for treated versus control groups. […]

For data set [2], the system named is HCT116 cells expressing NfsB homologue P. putida 2432. Put plainly: Monolayer antiproliferative (IC50) assay, NTR-expressing HCT116. The format is cell-based, human. Particulars: 18 hrs exposure, 5 days regrowth. How it is done:
(§1) FIGS. 10 (B) and 10 (C) illustrates the results of evaluation of 2-nitroimidazole clinical imaging candidates with E. coli and non-E. coli NTRs. Stably-expressing cells were treated with varying concentration of 2-nitroimidazole prodrugs diluted in αMEM+5% FCS+P/S. Cells were exposed to prodrug for 18 hrs, washed and left to regrow for 5 days. IC50 was determined as the concentration of prodrug required to inhibit cell growth by 50% of untreated controls. IC50 values are mean for ≥2 independent experiments. WT:NTR ratio-ratio of IC50 means from WT cells versus NTR-expressing cell lines.
(§2) Isolated NTR gene sequences were subject to PCR and introduced in the bicistronic plasmid F579 via Gateway cloning (Invitrogen) as described by Prosser et al. (2010, Biochem Pharmacol, 79, 678-687). Stably transfected cell lines were created by transfection of the relevant plasmid using FuGENE 6 Transfection Reagent (Roche). Transfected cell populations were maintained by passage in puromycin
Cells were passaged in alpha-Minimal Essential Media, (αMEM; Gibco) supplemented with 5% FBS, (GIBCO NZ) without antibiotics. Cell were passaged for <3 months from frozen stocks and confirmed Mycoplasma free (PCR-ELISA; Roche Diagnostics). […] Plates were read on an ELx 808 Absorbance Microplate Reader (Bio-Tek Instruments). Absorbance was measured at 490 nm and 450 nm (final absorbance 490-450). […]

The target of the next data set is T1, NfsB(Ec) (Escherichia coli, UniProt P38489).
T1 construct: expressed in transfected cells; host or cells: E. coli SOS-R2 (endogenous nfsA, nfsB, nemA and azoR deleted) carrying pUCX::ntr
The data set is described as follows: Growth Inhibition assay, NTR over-expressing E. coli SOS-R2. Particulars: elevated substrate concentrations (400 μM F-MISO, 600 μM HX4). The format is cell-based. As for the experimental part:
FIG. 34 (B) illustrates the metabolism of F-MISO by members of the 58 NTR over-expression library as measured by Growth Inhibition assay as described for FIG. 34A except that cells were challenged with 400 μM F-MISO.
FIG. 35 (B) illustrates the metabolism of HX4 by members of the 58 NTR over-expression library as measured by Growth Inhibition assay as described for FIG. 35A except that cells were challenged with 600 μM HX4.
Individual microtiter plate wells containing 200 μl LB+amp, 0.4% glucose were inoculated with SOS-R2 pUCX::ntr strains and incubated overnight at 30° C., 200 rpm. Ten μl of the overnight culture were used to inoculate 190 μl of fresh assay media (LB+amp, 0.05 mM IPTG, 0.2% glucose) and incubated at 30° C., 200 rpm for 3 h. The 200 μl culture was split into 100 μl duplicates which were supplemented with either 100 μl challenge media (assay media+250 uM EF5+2% DMSO) or 100 μl control media (assay media+2% DMSO). Initial OD600 readings were recorded and then plates incubated at 30° C., 200 rpm for 4 h after which final OD600 readings were taken and used to calculate strains respective growth inhibition in EF5 presence.

In data set [3] the test system is HCT116 cells expressing E. coli NfsB. The data set is described as follows: Monolayer antiproliferative (IC50) assay, NTR-expressing HCT116. Particulars: 18 hrs exposure, 5 days regrowth. The format is cell-based, human. As for the experimental part:
as §1
FIG. 21 illustrates antiproliferative activity (IC50 value) of prodrug candidates with E. coli and non-E. coli nitroreductases. Stably-expressing cells were treated with varying concentration of prodrug diluted in αMEM+5% FCS+P/S. Cells were exposed to prodrug for 18 hrs, washed and left to regrow for 5 days. IC50 was determined as the concentration of prodrug required to inhibit cell growth by 50% of untreated controls. IC50 values are mean for ≥2 independent experiments. WT:NTR ratio-interexperimental ratio of IC50 means from WT cells versus NTR-expressing cell lines.
as §2
Cells were passaged in alpha-Minimal Essential Media, (αMEM; Gibco) supplemented with 5% FBS, (GIBCO NZ) without antibiotics. Cell were passaged for <3 months from frozen stocks and confirmed Mycoplasma free (PCR-ELISA; Roche Diagnostics). Cells were aliquoted into the 96-well plate (100 μL/well) and cells were left to attach (≥4 hrs). […] Plates were read on an ELx 808 Absorbance Microplate Reader (Bio-Tek Instruments). Absorbance was measured at 490 nm and 450 nm (final absorbance 490-450). […]

Data set [4] deals with ONYX-411^NfsB infected HCT-116WT cells. The data set is described as follows: Cytopathic effect assay, replicating adenovirus expressing E. coli NfsB. The format is cell-based. Particulars: metronidazole refreshed every 2 days, read on day 9. How it is done: (§3) FIG. 31 illustrates the cytoprotective effects of NfsB dependent activation of metronidazole by conditionally replicating virus ONYX411^NfsB. HCT-116WT cells were seeded overnight and the top wells were infected with 0.125 MOI for ONYX411-nfsB and 1 MOI for ONYX411-WT with 2-fold serial dilutions. 24 hrs following infection media was replaced with fresh αMEM containing 2% FCS and varying concentrations of metronidazole, which was refreshed every 2 days. On day 9 wells were fixed with 10% TCA and stained with SRB and cell density analysed.
(§4) HCT-116WT cells were seeded overnight and the top wells were infected with 0.125 MOI of the replication competent adenovirus ONYX411-nfsB and 1 MOI for ONYX411-WT with 2-fold serial dilutions ((Singleton et al, 2007, Cancer Gene Ther 14 (12): 953-967). 24 hrs following infection media was replaced with fresh αMEM containing 2% FCS and varying concentrations of metronidazole, which was refreshed every 2 days. On day 9 wells were fixed with 10% TCA and stained with SRB and cell density analysed.

For data set [5], the system named is nitroreductase NfsA-expressing HCT116 'activator' cells. The data set is described as follows: MCL (multicellular layer) bystander experiment, NfsA-dependent activation. The data set is classed as cell-based, human. As for the experimental part:
Displacement of the Target cell survival curve to the left (T to Tc) is indicative of the presence of a cytotoxic metabolite(s) able to diffusible out of the sensitive activator (A) cell population. The prodrug concentrations for 10% survival (C10) of target cells (wild-type cells) grown without activators (T), targets in co-culture (TC) and activators (nfsA-expressing cells) in co-culture (AC) were determined by interpolation. BEE-Bystander effect efficiency calculates the drugs bystander effect: ((Log C10T−Log C10TC)/(Log C10T−Log C10AC)).
The prodrug concentrations for 10% survival (C10) of target cells (wild-type cells) grown without activators (T), and targets in co-culture (TC) and activators (NTR-expressing cells) in co-culture (AC) can be determined. The bystander effect of a test prodrug is measured by the bystander effect efficiency which can be calculated using the algorithm ((Log C10T−Log C10TC)/(Log C10T−Log C10AC)).
Millicell-CM membrane inserts (Millipore) were coated in calf-skin collagen type III (Sigma-Aldrich) to facilitate cell attachment. […] After exposure, inserts were disaggregated (0.07% trypsin, 10 min, 37° C., followed by 100 μg/ml DNAase I (Sigma-Aldrich). Cells were counted, resuspended and plated in P60 dishes to determine clonogenic survival. To discriminate clonogenic activator (NTR+) from target (NTR−) colonies cells were plated in non-selective medium (total cells) and medium containing 1 μM puromycin (activator cells). Colonies were grown in a 37° C. 5% CO2 incubator for 10 days before staining with methylene blue (2 g/liter in 50% v/v aqueous ethanol). Colonies containing >50 cells were counted as clonogenic survivors. Surviving fractions for each population was calculated as the plating efficiency for drug-treated MCLs/untreated controls. The drug concentrations for 10% survival (C10) of target cells grown without activators (T), targets in co-culture (Tc) and activators in co-culture (Ac) was determined by interpolation.

Data set [6] has as its system ONYX-411^WT infected HCT-116WT cells. Put plainly: Cytopathic effect assay, control virus. The data set is classed as cell-based, adenovirus. Conditions: metronidazole refreshed every 2 days, read on day 9. How it is done:
as §3, §4
Background: Damage to the host cells serves as the signal in cytopathic effect assays.

Data set [7] can be described thus: Human plasma concentration-time (AUC) and tolerability. The data set is classed as in vivo. Particulars: 50 μM metronidazole exposure, achievable in humans, read-out: human AUC equivalent to the protective exposure.

“Also recorded” adds a separate entry of the source.

T1 sequence (P38489 whole entry): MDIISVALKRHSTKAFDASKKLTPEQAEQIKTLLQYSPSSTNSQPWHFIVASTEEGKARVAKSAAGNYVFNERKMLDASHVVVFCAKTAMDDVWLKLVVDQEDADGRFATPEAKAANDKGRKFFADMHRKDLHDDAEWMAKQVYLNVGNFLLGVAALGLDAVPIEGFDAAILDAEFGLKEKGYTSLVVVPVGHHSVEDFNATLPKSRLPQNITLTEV

For the compound `CS(=O)(=O)OCCN(CCBr)c1c(C(=O)NCCOP(=O)(O)O)cc([N+](=O)[O-])cc1[N+](=O)[O-]` [PR-104, 2-((2-bromoethyl)(2,4-dinitro-6-((2-(phosphonooxy)ethyl)carbamoyl)phenyl)amino)ethyl methanesulfonate], the “PR-104 dependent growth delay, nfsB versus nfsA tumours (in words)” value in data set [1] is given as “similar, with no statistically significant difference”.

For `O=[N+]([O-])c1nccn1CC(O)CF` (stereo not shown) [F-MISO, 1-fluoro-3-(2-nitro-1H-imidazol-1-yl)propan-2-ol], the “sensitivity to 2-nitroimidazoles (in words)” value in data set [2] and in data set [3] was “modest sensitivity” throughout. Also, the “activity with 2-NI substrate (in words)” value at NfsB(Ec) is “substantial activity”.

As to `O=[N+]([O-])c1nccn1Cc1cn(C(CO)CF)nn1` (stereo not shown) [HX4, 3-fluoro-2-(4-((2-nitro-1H-imidazol-1-yl)methyl)-1H-1,2,3-triazol-1-yl)propan-1-ol], the “activity with 2-NI substrate (in words)” value on NfsB(Ec) was “substantial activity”.

As for `Cc1ncc([N+](=O)[O-])n1CCO` [Metronidazole, 2-(2-methyl-5-nitro-1H-imidazol-1-yl)ethanol], the “concentration range with reduction in oncolytic activity” value in data set [4] lay in the range of 50 to 500 µM. Further, the “bystander property (in words)” value in data set [5] (MCL of NTR-expressing and parental HCT116 cells) is “lack any measurable bystander effect; also recorded: zero bystander property”. Also, the “estimated bystander effect efficiency (BEE)” value in data set [5] (hyperoxic (95% O2) MCLs, at concentrations achievable in α-MEM+10% FBS, activator fraction differs per experiment) is 0%. Also, the “effect on oncolytic activity (in words)” value in data set [6] is “no inhibitory effects”. For the same compound, the exposure (AUC) (as a rule, the area under the concentration-time curve, a measure of exposure) in data set [7] was determined as 1200 µM·h.
